# Results as given in PMC4858736, “Inhibition of cyclic diadenylate cyclase, DisA, by polyphenols” (Scientific Reports, 2016).
# Target: T1, DisA (Bacillus subtilis, UniProt P37573)
# T1 sequence (P37573 1-360): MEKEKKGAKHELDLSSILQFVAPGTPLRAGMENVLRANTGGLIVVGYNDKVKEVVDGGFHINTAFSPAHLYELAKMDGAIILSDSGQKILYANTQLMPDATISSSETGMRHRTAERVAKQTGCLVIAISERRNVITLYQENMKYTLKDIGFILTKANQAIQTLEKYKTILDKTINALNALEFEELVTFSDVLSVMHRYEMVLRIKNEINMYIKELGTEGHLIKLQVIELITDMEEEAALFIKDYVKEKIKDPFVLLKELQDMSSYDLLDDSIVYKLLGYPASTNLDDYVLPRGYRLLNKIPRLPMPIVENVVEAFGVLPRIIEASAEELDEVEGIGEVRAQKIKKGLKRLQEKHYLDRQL
# Test: […]-ATP TLC diadenylate cyclase assay with purified DisA; HPLC and coralyne assays
# Type: biochemical
smiles,measurement,value
"O=C(O[C@@H]1Cc2c(O)cc(O)cc2O[C@@H]1c1cc(O)c(O)c2c(=O)c(O)cc([C@H]3Oc4cc(O)cc(O)c4C[C@H]3O)cc12)c1cc(O)c(O)c(O)c1 [TF2B, theaflavin-3′-gallate]",IC50,23.6 µM
